Experiments:
[1] = target: human A2A adenosine receptor (Homo sapiens (Human), UniProt P29274); experiment: A2A binding affinity using radioligand binding, Method (A); conditions: Method (A): filtration radioligand binding, [3H] SCH58261, membranes expressing human A2A
Method in brief: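 Filtration binding used HEK293 or CHO membranes (5 μg/mL) preincubated with compound for 15–30 min at RT. [3H]SCH58261 (4 nM working solution) was added in Tris pH 7.4/10 mM MgCl2/0.005% Tween20 for 60 min at RT, with 1 μM ZM241385 defining nonspecific binding. Scintillation counts gave IC50 via 4-parameter logistic fit.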

[2] = target: human A2B adenosine receptor (Homo sapiens (Human), UniProt P29275); experiment: A2B binding affinity, radioligand filtration binding assay; conditions: HEK293 membranes expressing human A2B, tritiated proprietary antagonist
Description: Method (A) describes the procedure used to measure A2A binding affinity using radioligand binding. Method (B) describes the procedure used to measure A2A binding affinity using SPA technology. The method used to measure A2B binding affinity is also described below. The method used to determine the A2A IC50 value reported for each compound in the table is indicated next to the reported value. The A2B IC50 value measured using the A2B binding affinity assay is shown in the table next to the compound under the corresponding A2A value.
Measurement of A2B Binding Affinity
The reported affinity of the compounds of the invention for the human A2B adenosine receptor was determined experimentally using a radioligand filtration binding assay. This assay measures the amount of binding of a tritiated proprietary A2B receptor antagonist, in the presence and absence of a compound of the invention, to membranes made from HEK293 cells recombinantly expressing the human A2B adenosine receptor (Perkin Elmer, Cat. No. ES-013-C).
148 μL (135 μg/mL) membranes and 2 μL test compounds were transferred to individual wells of a 96-well polypropylene assay plate and incubated for 15 to 30 min at room temperature with agitation. Tritiated radioligand was diluted to a concentration of 14 nM in assay buffer (phosphate buffered saline without Magnesium and Calcium, pH 7.4; GE Healthcare Life Sciences, Cat. No. SH30256.01) and then 50 μL of the solution were transferred to each well of the assay plate. To define total and non-specific binding, wells containing 1% DMSO and 20 μM N-ethylcarboxamidoadenosine (Tocris Bioscience, Cat. No. 1691) respectively, were also included. The wells of the assay plate were incubated at room temperature for 60 min with agitation, then filtered using a FilterMate Harvester® (Perkin Elmer) or similar equipment through a UniFilter-96@ PEI coated plate (Perkin Elmer Cat. No. 6005274 or 6005277). Filtering was achieved by aspirating the contents of the assay plate for 5 sec, then washing and aspirating the contents three times with ice-cooled wash buffer (assay buffer supplemented with 0.0025% Brij58) and allowing the vacuum manifold to dry the plate for 30 sec. The filter plate was incubated for at least 1 h at 55° C. and allowed to dry. The bottom of the filter plate was then sealed with backing tape. 40 μL Ultima Gold™ (Perkin Elmer, Cat. No. 6013329) was added to each well of the filter plate and the top of the plate was sealed with TopSeal-A PLUS® clear plate seal (Perkin Elmer, Cat. No. 6050185). The plates were then incubated for at least 20 min, and then the amount of radioactivity remaining in each well was determined using a TopCount® (Perkin Elmer) scintillation counter. After normalization to total and non-specific binding, the percent effect at each compound concentration was calculated. The plot of percent effect versus the log of compound concentration was analyzed electronically using a 4-parameter logistic fit based on the Levenberg-Marquardt algorithm to generate IC50 values.

Chain of human A2A adenosine receptor (P29274 whole entry): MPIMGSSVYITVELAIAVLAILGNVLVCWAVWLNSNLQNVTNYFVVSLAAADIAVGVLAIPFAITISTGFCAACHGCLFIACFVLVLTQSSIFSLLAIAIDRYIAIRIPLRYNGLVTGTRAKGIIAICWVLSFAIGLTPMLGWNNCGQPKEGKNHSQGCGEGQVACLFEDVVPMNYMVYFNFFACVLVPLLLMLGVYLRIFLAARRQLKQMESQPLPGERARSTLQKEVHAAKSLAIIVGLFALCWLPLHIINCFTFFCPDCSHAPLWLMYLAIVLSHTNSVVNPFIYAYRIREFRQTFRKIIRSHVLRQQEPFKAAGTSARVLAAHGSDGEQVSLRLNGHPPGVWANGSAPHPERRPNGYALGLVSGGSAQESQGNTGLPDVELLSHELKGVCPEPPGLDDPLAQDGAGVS
Chain of human A2B adenosine receptor (P29275 whole entry): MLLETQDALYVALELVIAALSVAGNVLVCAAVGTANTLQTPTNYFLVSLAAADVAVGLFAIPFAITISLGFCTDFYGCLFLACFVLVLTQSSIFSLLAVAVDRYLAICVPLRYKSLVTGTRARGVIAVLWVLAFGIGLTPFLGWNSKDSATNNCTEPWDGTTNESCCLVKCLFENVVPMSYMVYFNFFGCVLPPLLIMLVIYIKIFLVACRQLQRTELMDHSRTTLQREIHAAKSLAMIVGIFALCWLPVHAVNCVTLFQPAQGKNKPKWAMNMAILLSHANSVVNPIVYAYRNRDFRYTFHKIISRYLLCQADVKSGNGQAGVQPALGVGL

| SMILES | IC50 [1] | IC50 ([2]; value given with marker (A)) | IC50 ([2]; value given with marker (B)) |
| --- | --- | --- | --- |
| COc1cccc2c1nc(N)n1nc(CCS(C)(=O)=O)nc21 [Example 6.3, 7-methoxy-2-(2-(methylsulfonyl)ethyl)-[1,2,4]-triazolo[1,5-c]quinazolin-5-amine] | 8.2 nM | 535 nM |  |
| COc1cccc2c1nc(N)n1nc(CCS(=O)(=O)c3ccc(F)cc3)nc21 [Example 13.4, 2-(2-((4-fluorophenyl)sulfonyl)ethyl)-7-methoxy-[1,2,4]triazolo[1,5-c]quinazolin-5-amine] | 0.3 nM | 973 nM |  |
| COc1ccc2c(c1)nc(N)n1nc(CCS(=O)(=O)c3ccc(F)cc3)nc21 [Example 13.7, 2-(2-((4-fluorophenyl)sulfonyl)ethyl)-8-methoxy-[1,2,4]triazolo[1,5-c]quinazolin-5-amine] | 170 nM | 607 nM |  |
| COc1ccc2c(c1)nc(N)n1nc(CCS(=O)(=O)CC(C)C)nc21 [Example 13.8, 2-(2-(isobutylsulfonyl)ethyl)-8-methoxy-[1,2,4]triazolo-[1,5-c]quinazolin-5-amine] | 76.9 nM | 894 nM |  |
| CCS(=O)(=O)CCc1nc2c3ccc(OC)cc3nc(N)n2n1 [Example 13.9, 2-(2-(ethylsulfonyl)ethyl)-8-methoxy-[1,2,4]triazolo-[1,5-c]quinazolin-5-amine] | 246 nM | 1060 nM |  |
| COc1cc(F)cc2c1nc(N)n1nc(CCS(=O)(=O)C3CC3)nc21 [Example 13.10, 2-(2-(cyclopropylsulfonyl)ethyl)-9-fluoro-7-methoxy-[1,2,4]triazolo[1,5-c]quinazolin-5-amine] | 0.8 nM | 9.8 nM |  |
| COc1cc(F)cc2c1nc(N)n1nc(CCS(=O)(=O)CC(C)C)nc21 [Example 13.11, 9-fluoro-2-(2-(isobutylsulfonyl)ethyl)-7-methoxy-[1,2,4]triazolo[1,5-c]quinazolin-5-amine] | 28.8 nM | 666 nM |  |
| CCS(=O)(=O)CCc1nc2c3cc(F)c(OC)cc3nc(N)n2n1 [Example 13.12, 2-(2-(ethylsulfonyl)ethyl)-9-fluoro-8-methoxy-[1,2,4]triazolo[1,5-c]quinazolin-5-amine] | 165 nM | 1720 nM |  |
| COc1cc2nc(N)n3nc(CCS(=O)(=O)C4CC4)nc3c2cc1F [Example 13.14, 2-(2-(cyclopropylsulfonyl)ethyl)-9-fluoro-8-methoxy-[1,2,4]triazolo[1,5-c]quinazolin-5-amine] | 9.1 nM | 197 nM |  |
| CCS(=O)(=O)CCc1nc2c3cc(F)cc(OC)c3nc(N)n2n1 [Example 13.15, 2-(2-(ethylsulfonyl)ethyl)-9-fluoro-7-methoxy-[1,2,4]triazolo[1,5-c]quinazolin-5-amine] | 9.8 nM | 220 nM |  |
| COc1cccc2c1nc(N)n1nc(CCS(C)(=O)=O)nc21 [Example 13.17, 7-methoxy-2-(2-(methylsulfonyl)ethyl)-[1,2,4]triazolo[1,5-c]quinazolin-5-amine] | 28.1 nM | 410 nM |  |
| COc1cc(F)cc2c1nc(N)n1nc(CCCS(=O)(=O)C3CC3)nc21 [Example 13.18, 2-(3-(cyclopropylsulfonyl)propyl)-9-fluoro-7-methoxy-[1,2,4]triazolo[1,5-c]quinazolin-5-amine] | 1.1 nM | 112 nM |  |
| CC[C@@H](O)Cc1nc2c3cccc(OC)c3nc(N)n2n1 [Example 17.2, (R)-1-(5-amino-7-methoxy-[1,2,4]triazolo[1,5-c]quinazolin-2-yl)butan-2-ol] | 13.9 nM |  | 307 nM |
| COc1cccc2c1nc(N)n1nc([C@@H](C)CO)nc21 [Example 17.3, (R)-2-(5-amino-7-methoxy-[1,2,4]triazolo[1,5-c]quinazolin-2-yl)propan-1-ol] | 264 nM |  | 2990 nM |
| COc1cccc2c1nc(N)n1nc([C@H](C)CO)nc21 [Example 17.4, (S)-2-(5-amino-7-methoxy-[1,2,4]triazolo[1,5-c]quinazolin-2-yl)propan-1-ol] | 145 nM |  | 1070 nM |
| COc1cccc2c1nc(N)n1nc(C[C@H](C)O)nc21 [Example 18.3, (S)-1-(5-amino-7-methoxy-[1,2,4]triazolo[1,5-c]quinazolin-2-yl)propan-2-ol] | 6.7 nM |  | 214 nM |

The remaining lines, values ahead:

| IC50 [1] | IC50 ([2]; value given with marker (A)) | IC50 ([2]; value given with marker (B)) | SMILES |
| --- | --- | --- | --- |
| 4.8 nM | 455 nM |  | COc1cc2nc(N)n3nc(CCS(=O)(=O)c4ccccc4)nc3c2cc1F [Example 6.2, 9-fluoro-8-methoxy-2-(2-(phenylsulfonyl)ethyl)-[1,2,4]triazolo[1,5-c]quinazolin-5-amine] |
| 222 nM | 1900 nM |  | COc1cc2nc(N)n3nc(CCS(C)(=O)=O)nc3c2cc1F [Example 6.4, 9-fluoro-8-methoxy-2-(2-(methylsulfonyl)ethyl)-[1,2,4]triazolo[1,5-c]quinazolin-5-amine] |
| 107 nM | 113 nM |  | COc1cc2nc(N)n3nc(CCS(N)(=O)=O)nc3c2cc1F [Example 6.5, 2-(5-amino-9-fluoro-8-methoxy-[1,2,4]triazolo-[1,5-c]quinazolin-2-yl)ethane-1-sulfonamide] |
| 4.2 nM |  | 3780 nM | COc1cccc2c1nc(N)n1nc(CS(=O)(=O)c3ccccc3)nc21 [Example 6.6, 7-methoxy-2-((phenylsulfonyl)methyl)-[1,2,4]triazolo-[1,5-c]quinazolin-5-amine] |
| 57.7 nM | 1040 nM |  | COc1cc2nc(N)n3nc(CCS(=O)(=O)c4ccc(F)cc4)nc3c2cc1F [Example 13.13, 9-fluoro-2-(2-((4-fluorophenyl)sulfonyl)ethyl)-8-methoxy-[1,2,4]triazolo[1,5-c]quinazolin-5-amine] |
| 107 nM | 1080 nM |  | COc1cc2nc(N)n3nc(CCS(=O)(=O)CC(C)C)nc3c2cc1F [Example 13.16, 9-fluoro-2-(2-(isobutylsulfonyl)ethyl)-8-methoxy-[1,2,4]triazolo[1,5-c]quinazolin-5-amine] |
| 30.8 nM |  | 128 nM | COc1cccc2c1nc(N)n1nc(CC(C)(C)O)nc21 [Example 18.2, 1-(5-amino-7-methoxy-[1,2,4]triazolo[1,5-c]quinazolin-2-yl)-2-methylpropan-2-ol] |
| 15.1 nM |  | 209 nM | COc1cccc2c1nc(N)n1nc(C[C@@H](C)O)nc21 [Example 18.4, (R)-1-(5-amino-7-methoxy-[1,2,4]triazolo[1,5-c]quinazolin-2-yl)propan-2-ol] |

Source: patent US20240076297A1, “ADENOSINE A2A AND A2B RECEPTOR DUAL ANTAGONISTS FOR IMMUNO-ONCOLOGY” (Merck Sharp & Dohme LLC, priority 2020, published 2024)
